According to patent US11753407B2, “Compounds for treating spinal muscular atrophy” (PTC Therapeutics, Inc., priority 2012, dated 2023):

Tests used:
[1] = system: SMN2 minigene mRNA (SMN2-A minigene) in HEK293H cells; test: SMN2 minigene mRNA splicing RT-qPCR assay in cultured cells; format: cell-based, human; conditions: Homo sapiens, HEK293-H; concentration increasing full length SMN2 mRNA 1.5-fold relative to vehicle-treated cells; HEK293H cells with SMN2-A minigene, 24 hours, 7-point concentration data; read-out: EC1.5x for production of full length SMN2 mRNA
Procedure, shortened: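 HEK293H cells stably carrying SMN2-A minigene treated with compounds (7-point, 3.16-fold dilutions, duplicates) for 24 h at 37 °C. Full-length exon 7-containing minigene mRNA measured by multiplex RT-qPCR with GAPDH, normalized and expressed relative to vehicle (modified ΔΔCt); EC1.5× is concentration giving 1.5-fold increase.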

[2] = system: Smn protein in SMA patient fibroblast cells (GM03813); test: Smn protein assay in cultured cells (SMN HTRF); format: cell-based, human; conditions: SMA patient fibroblast cells, 48 hours; for EC1.5x for Smn protein expression: 7-point concentration curve, SMN HTRF, concentration producing 1.5 times Smn protein vs DMSO vehicle control; for maximum fold (Fold) increase of Smn protein: 7-point concentration data, fold relative to vehicle control
Procedure, shortened: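 SMA patient fibroblasts (5,000/well, DMEM-10% FBS) treated 48 h at 37° C with 7-point, 3.16-fold compound series in triplicate; lysates read by SMN HTRF (665/620 nm ratio). Fold Smn increase over DMSO vehicle derived; EC1.5× is concentration giving 1.5-fold Smn, with maximum fold also reported.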

| Compound | melting point [°C] | EC (1.5-fold increase) [1] [µM] | EC1.5x for Smn protein expression [2] | maximum fold (Fold) increase of Smn protein [2] |
| --- | --- | --- | --- | --- |
| COc1ccc(-c2cc(=O)n3cc(N4CC[C@H](N)C4)ccc3n2)cc1F [Compound 224, 7-[(3S)-3-aminopyrrolidin-1-yl]-2-(3-fluoro-4-methoxyphenyl)-4H-pyrido[1,2-a]pyrimidin-4-one] | 193 to 198 | 0.3 to 1 | *** (an EC1.5× between >0.3 μM and ≤1 μM is indicated by three stars (***)) | **** (a fold increase between >1.5 and ≤1.65 is indicated by four stars (****)) |
| COc1ccc(-c2cc(=O)n3cc(N[C@@H]4CCN(C)C4)ccc3n2)cc1F [Compound 225, 2-(3-fluoro-4-methoxyphenyl)-7-{[(3R)-1-methylpyrrolidin-3-yl]amino}-4H-pyrido[1,2-a]pyrimidin-4-one] | 197 to 202 | 1 to 3 | – | * (A maximum fold increase of ≤1.2 is indicated by one star (*)) |
| COc1ccc(-c2cc(=O)n3cc(N4CCC(CN(C)C)CC4)ccc3n2)cc1F [Compound 226, 7-{4-[(dimethylamino)methyl]piperidin-1-yl}-2-(3-fluoro-4-methoxyphenyl)-4H-pyrido[1,2-a]pyrimidin-4-one] | 178 to 185 | 0.3 to 1 | – | * (A maximum fold increase of ≤1.2 is indicated by one star (*)) |
| COc1cccc(-c2cc(=O)n3cc(N4CCNCC4)ccc3n2)n1 [Compound 227, 2-(6-methoxypyridin-2-yl)-7-(piperazin-1-yl)-4H-pyrido[1,2-a]pyrimidin-4-one] | 214 to 218 | 1 to 3 | – | *** (a fold increase between >1.35 and ≤1.5 is indicated by three stars (***)) |
| O=c1cc(-c2cccnc2)nc2ccc(N3CCNCC3)cn12 [Compound 228, 7-(piperazin-1-yl)-2-(pyridin-3-yl)-4H-pyrido[1,2-a]pyrimidin-4-one] | 175 to 178 | 1 to 3 | – | ** (a fold increase between >1.2 and ≤1.35 is indicated by two stars (**)) |
| COc1cncc(-c2cc(=O)n3cc(N4CCNCC4)ccc3n2)c1 [Compound 229, 2-(5-methoxypyridin-3-yl)-7-(piperazin-1-yl)-4H-pyrido[1,2-a]pyrimidin-4-one] | 192 to 195 | 0.3 to 1 | * (An EC1.5× for Smn protein expression between >3 μM and ≤10 μM is indicated by one star (*)) | *** (a fold increase between >1.35 and ≤1.5 is indicated by three stars (***)) |
| C[C@H]1CN(c2ccc3nc(-c4cc(F)cc(C#N)c4)cc(=O)n3c2)CCN1 [Compound 230, 3-fluoro-5-{7-[(3S)-3-methylpiperazin-1-yl]-4-oxo-4H-pyrido[1,2-a]pyrimidin-2-yl}benzonitrile] | 185 to 188 | 0.3 to 1 | ** (an EC1.5× between >1 μM and ≤3 μM is indicated by two stars (**)) | **** (a fold increase between >1.5 and ≤1.65 is indicated by four stars (****)) |
| COc1ccc(-c2cc(=O)n3cc(C4=CCNCC4)cc(C)c3n2)cc1OC [Compound 247, 2-(3,4-dimethoxyphenyl)-9-methyl-7-(1,2,3,6-tetrahydropyridin-4-yl)-4H-pyrido[1,2-a]pyrimidin-4-one] | 186 to 191 | < 0.1 | **** (an EC1.5x≤0.3 μM is indicated by four stars (****)) | ***** (a fold increase >1.65 is indicated by five stars (*****)) |
| COc1ccc(-c2cc(=O)n3cc(C4=CCN(CCO)CC4)ccc3n2)cc1OC [Compound 248, 2-(3,4-dimethoxyphenyl)-7-[1-(2-hydroxyethyl)-1,2,3,6-tetrahydropyridin-4-yl]-4H-pyrido[1,2-a]pyrimidin-4-one] | 134 to 137 | 0.3 to 1 | *** (an EC1.5× between >0.3 μM and ≤1 μM is indicated by three stars (***)) | **** (a fold increase between >1.5 and ≤1.65 is indicated by four stars (****)) |

Further lines, with some results ahead:

| melting point [°C] | Compound | EC (1.5-fold increase) [1] [µM] | EC1.5x for Smn protein expression [2] | maximum fold (Fold) increase of Smn protein [2] |
| --- | --- | --- | --- | --- |
| 238 to 244 | N#Cc1cc(F)cc(-c2cc(=O)n3cc(N4CCNCC4)ccc3n2)c1 [Compound 231, 3-fluoro-5-[4-oxo-7-(piperazin-1-yl)-4H-pyrido[1,2-a]pyrimidin-2-yl]benzonitrile] | 0.3 to 1 | ** (an EC1.5× between >1 μM and ≤3 μM is indicated by two stars (**)) | **** (a fold increase between >1.5 and ≤1.65 is indicated by four stars (****)) |
| 226 to 232 | COc1ccc(-c2cc(=O)n3cc(N4C[C@H](O)[C@@H](N5CCCC5)C4)ccc3n2)cc1F [Compound 232, 2-(3-fluoro-4-methoxyphenyl)-7-[(3′S,4′S)-4′-hydroxy-1,3′-bipyrrolidin-1′-yl]-4H-pyrido[1,2-a]pyrimidin-4-one] | 1 to 3 | – | * (A maximum fold increase of ≤1.2 is indicated by one star (*)) |
| 143 to 147 | COc1ccc(-c2cc(=O)n3cc(N(C)[C@@H]4CCNC4)ccc3n2)cc1F [Compound 233, 2-(3-fluoro-4-methoxyphenyl)-7-{methyl[(3R)-pyrrolidin-3-yl]amino}-4H-pyrido[1,2-a]pyrimidin-4-one] | 0.3 to 1 | – | * (A maximum fold increase of ≤1.2 is indicated by one star (*)) |
| 205 to 209 | Cc1nc2ccc(-c3cc(=O)n4cc(N5CCN(C)[C@@H](C)C5)ccc4n3)cc2o1 [Compound 234, 7-[(3S)-3,4-dimethylpiperazin-1-yl]-2-(2-methyl-1,3-benzoxazol-6-yl)-4H-pyrido[1,2-a]pyrimidin-4-one] | < 0.1 | **** (an EC1.5x≤0.3 μM is indicated by four stars (****)) | ***** (a fold increase >1.65 is indicated by five stars (*****)) |
| 164 to 166 | COc1ccc(-c2cc(=O)n3cc(O[C@H]4CCNC4)ccc3n2)cc1OC [Compound 236, 2-(3,4-dimethoxyphenyl)-7-[(3S)-pyrrolidin-3-yloxy]-4H-pyrido[1,2-a]pyrimidin-4-one] | 1 to 3 | * (An EC1.5× for Smn protein expression between >3 μM and ≤10 μM is indicated by one star (*)) | *** (a fold increase between >1.35 and ≤1.5 is indicated by three stars (***)) |
| 160 to 177 | COc1ccc(-c2cc(=O)n3cc(N4CCCNCC4)cc(C)c3n2)cc1OC [Compound 238, 7-(1,4-diazepan-1-yl)-2-(3,4-dimethoxyphenyl)-9-methyl-4H-pyrido[1,2-a]pyrimidin-4-one] | 0.3 to 1 | – | ** (a fold increase between >1.2 and ≤1.35 is indicated by two stars (**)) |
| 206 to 210 | Cc1nc2ccc(-c3cc(=O)n4cc(N5CCC(N(C)C)CC5)ccc4n3)cc2o1 [Compound 240, 7-[4-(dimethylamino)piperidin-1-yl]-2-(2-methyl-1,3-benzoxazol-6-yl)-4H-pyrido[1,2-a]pyrimidin-4-one] | < 0.1 | **** (an EC1.5x≤0.3 μM is indicated by four stars (****)) | **** (a fold increase between >1.5 and ≤1.65 is indicated by four stars (****)) |
| 189 to 193 | Cc1nc2ccc(-c3cc(=O)n4cc(N5CC[C@H](N(C)C)C5)ccc4n3)cc2o1 [Compound 241, 7-[(3S)-3-(dimethylamino)pyrrolidin-1-yl]-2-(2-methyl-1,3-benzoxazol-6-yl)-4H-pyrido[1,2-a]pyrimidin-4-one] | 0.1 to 0.3 | **** (an EC1.5x≤0.3 μM is indicated by four stars (****)) | ***** (a fold increase >1.65 is indicated by five stars (*****)) |
| 181 to 187 | Cc1nc2ccc(-c3cc(=O)n4cc(N5CCN(C)[C@H](C)C5)ccc4n3)cc2o1 [Compound 244, 7-[(3R)-3,4-dimethylpiperazin-1-yl]-2-(2-methyl-1,3-benzoxazol-6-yl)-4H-pyrido[1,2-a]pyrimidin-4-one] | < 0.1 | **** (an EC1.5x≤0.3 μM is indicated by four stars (****)) | **** (a fold increase between >1.5 and ≤1.65 is indicated by four stars (****)) |
| 205 to 209 | COc1ccc(-c2cc(=O)n3cc(N4C[C@H]5CCN(C)[C@H]5C4)ccc3n2)cc1F [Compound 246, 2-(3-fluoro-4-methoxyphenyl)-7-[(3aR,6aR)-1-methylhexahydropyrrolo[3,4-b]pyrrol-5(1H)-yl]-4H-pyrido[1,2-a]pyrimidin-4-one] | 1 to 3 | – | * (A maximum fold increase of ≤1.2 is indicated by one star (*)) |
